Measurements published in PMC4076215, “Nickel(II) Complex of Polyhydroxybenzaldehyde N4-Thiosemicarbazone Exhibits Anti-Inflammatory Activity by Inhibiting NF-κB Transactivation” (PLoS ONE, 2014).
“Also recorded” adds a separate entry of the source.

Tested on: carrageenan-induced paw edema
Assay: Carrageenan-induced paw edema mouse model
Type: in vivo, C57BL/6 mice
Details: for Paw size: 1 h after carrageenan, control 7.3±0.8 mm
Experimental: Male C57BL/6 mice at age 8–12 weeks old were from Jackson Laboratories, USA. Mice were administrated intraperitoneally (i.p.) with two different doses of complex 5 (2.5 mg/kg and 5 mg/kg). Negative control groups were i.p. injected with 200 µl of vehicle (50% v/v ethanol). A standard drug 2 mg/kg dexamethasone (Sigma) was included in the study. After 1 h, paw edema was induced by injecting 50 µl of 1% carrageenan (Sigma) through the plantar tissue at the right hind paw of each mouse. The thickness of right paw of each mouse was measured at 1, 3 and 5 h after carrageenan was administered. Four animals per group were tested (n = 4). Quantification of right hind paw thickness were analyzed for statistical significance using Student's t-test. Animals were housed in individually ventilated cages in specific pathogen free facility, Animal Experimental Unit, University of Malaya. All efforts were made to minimize animal suffering and the number of animals used. At the end of the experiment, mice were euthanized by CO2 asphyxiation. Animal work was approved by the Faculty of Medicine Animal Care and Use Committee (FOMIACUC) at University of Malaya and reported according to ARRIVE guidelines.
To test the in vivo inhibitory effect of complex 5 on inflammation, we administrated two doses of complex 5 (2.5 mg/kg and 5.0 mg/kg) into C57BL/6 wild type mice through i.p. injection. For a positive control, we performed i.p. injection of 2.0 mg/kg dexamethasone into the mice. After 1 h, paw edema in the mice was induced by injecting 1% carrageenan to the right hind paw. The paw sizes were measured at 1, 3 and 5 h after edema induction. The edema formation at the mice paw was due to inflammatory response causing the accumulation of histamine, serotonin, prostaglandin and other secreted inflammatory mediators.
Male C57BL/6 mice at age of 8-12 weeks old were non-injected or injected i.p. with 2.5 mg/kg or 5.0 mg/kg complex 5, whereas for positive controls, mice were injected i.p. with 2.0 mg/kg dexamethasone. After 1 h, acute inflammation was induced in the right hind paw of each mice by injecting 50 µl of carrageenan. The size of the paw were measured after (A) 1 h or, (B) 1, 3 and 5 h post carrageenan injection. Shown were mean ±SD (n = 4). Statistical analysis was performed with Student's t-test.

NC1=[S+][Ni-2]2([P+](c3ccccc3)(c3ccccc3)c3ccccc3)[O]c3c(O)cccc3C=[N+]2N1.[Cl-] [complex 5, {2-[(2-Carbamothiolylhydrazin-1-ylidene-[kappa]2N1,S)methyl]-6-hydroxyphenolato-[kappa]O1}(triphenylphosphine-[kappa]P)nickel(II) chloride]
Paw size (2.5 mg/kg i.p.): 5.8±0.4 mm | Paw edema formation (5.0 mg/kg i.p.): obvious reduction; also recorded: effectively reduced | Paw size (5.0 mg/kg i.p.): 5.0±0.2 mm | Paw edema compared to untreated mice (3 and 5 h post carrageenan): further reduced
